Among the test systems are DU-145 prostate; HCT-116 colon; M14 melanoma; MALME-3M melanoma; OVCAR-3 ovarian; OVCAR-5 ovarian; SK-MEL-2 melanoma; SN12C renal; SW-620 colon; UACC-62 melanoma.
Holding throughout (test): NCI tumour cell line growth inhibition, 48 h

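Grown in 96-well plates, cells were treated for 48 hours with each compound at five concentrations. Insufficient inhibition: endpoint recorded as highest concentration tested. GI50: concentration for 50% inhibition of growth. TGI marks complete inhibition of growth.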 Where only a bound is given, the exact number is not on record here.

As for `O=C(NC1CCCCC1)N1CCNC1=S`, the TGI in the test on DU-145 prostate, in the test on HCT-116 colon, in the test with M14 melanoma, with MALME-3M melanoma, in the test with OVCAR-3 ovarian and with OVCAR-5 ovarian was over 100 µM throughout. Also, the TGI in the test on SK-MEL-2 melanoma was 7.09 µM; in the test on SN12C renal, over 100 µM; in the test on SW-620 colon it was over 100 µM.

Take `O=C1C2=C(c3ccccc31)C(c1ccc([N+](=O)[O-])cc1)NC(=S)N2` (stereo not given): the TGI in the test on HCT-116 colon, with M14 melanoma, in the test on MALME-3M melanoma, in the test on OVCAR-3 ovarian, in the test on OVCAR-5 ovarian and in the test on SK-MEL-2 melanoma was over 100 µM in each case. Moreover, the TGI in the test with SN12C renal, in the test with SW-620 colon and in the test with UACC-62 melanoma was over 100 µM in each case.

Regarding `Cc1ccc(C2=C(c3ccccc3)C(O)(c3ccccc3)C(c3ccccc3)=C2c2ccc(C)cc2)cc1`, the TGI with HCT-116 colon, with M14 melanoma, in the test with MALME-3M melanoma, with OVCAR-5 ovarian, in the test on SK-MEL-2 melanoma and in the test with SN12C renal was over 100 µM each time. This compound also gave a TGI in the test with SW-620 colon of over 100 µM.

As for `CC(C)C(N=C1CC2CCC1(C(=O)Nc1ccccc1O)C2(C)C)c1ccccc1` (stereo not given), the TGI in the test with HCT-116 colon, in the test on M14 melanoma, with MALME-3M melanoma, in the test on OVCAR-3 ovarian, in the test with OVCAR-5 ovarian and in the test on SK-MEL-2 melanoma was over 10 µM each time. In addition, the TGI in the test with SN12C renal, in the test with SW-620 colon and in the test on UACC-62 melanoma was over 10 µM each time.

In the case of `O/N=C1/C(=C/c2ccc(Br)cc2)CCCC1C(NO)c1ccc(Br)cc1` (stereo not given), the TGI with HCT-116 colon was 31.3 µM; in the test on M14 melanoma it was 29.9 µM; with MALME-3M melanoma, 31.9 µM; with OVCAR-3 ovarian, 31.1 µM; in the test on OVCAR-5 ovarian, 24.6 µM; in the test on SK-MEL-2 melanoma, 34 µM. Further, the results for the TGI in the test with SN12C renal, in the test on SW-620 colon and in the test on UACC-62 melanoma were 24.9 µM, 38.6 µM and 27.8 µM, respectively.

`C[C@]12CC[C@@H]3c4cc(C=O)c(OCc5ccccc5)cc4CC[C@H]3[C@@H]1CCC2OCc1ccccc1` (stereo not given in full): the TGI with DU-145 prostate, with HCT-116 colon, with M14 melanoma, with OVCAR-3 ovarian, in the test with OVCAR-5 ovarian and in the test with SK-MEL-2 melanoma was over 100 µM in each case. The TGI in the test on SN12C renal, with SW-620 colon and in the test with UACC-62 melanoma was over 100 µM in each case.

Regarding `COc1ccccc1-c1nc[nH]c1-c1ccccc1OC`, the TGI in the test with HCT-116 colon is over 100 µM; with M14 melanoma, 78.3 µM; in the test on MALME-3M melanoma it was 52.9 µM; in the test with OVCAR-3 ovarian, over 100 µM; in the test with OVCAR-5 ovarian, over 100 µM; in the test with SK-MEL-2 melanoma, over 100 µM. Further, the TGI with SN12C renal and in the test with SW-620 colon was over 100 µM in each case.

Take `Cn1c(=Nc2ccccc2[N+](=O)[O-])sc2ccccc21`: the TGI in the test on DU-145 prostate, with HCT-116 colon, in the test on MALME-3M melanoma, in the test on OVCAR-5 ovarian, in the test on SK-MEL-2 melanoma and with SN12C renal was over 100 µM throughout. The TGI in the test on SW-620 colon and in the test with UACC-62 melanoma was over 100 µM each time.

Consider `CC(=O)Nc1ccc(S(=O)(=O)Nc2cnc3ccccc3n2)cc1`, for which the TGI in the test on M14 melanoma, in the test with MALME-3M melanoma, with OVCAR-3 ovarian, in the test with OVCAR-5 ovarian, in the test with SK-MEL-2 melanoma and in the test with SN12C renal was over 100 µM in each case. The TGI in the test on SW-620 colon and with UACC-62 melanoma was over 100 µM throughout.

For the compound `Nc1nc(Cl)cc(OCC2(CO)CCCCC2)n1`, the TGI with DU-145 prostate, in the test on HCT-116 colon, in the test on MALME-3M melanoma, with OVCAR-3 ovarian, in the test with OVCAR-5 ovarian and in the test on SN12C renal was over 100 µM each time. Besides, the TGI with SW-620 colon is over 100 µM.

As for `c1ccc(C2SCc3nc4ccccc4n32)cc1` (stereo not given), the TGI in the test with HCT-116 colon is over 100 µM; in the test on M14 melanoma, over 100 µM; in the test on MALME-3M melanoma, over 100 µM; with OVCAR-3 ovarian it was 54.5 µM; in the test on OVCAR-5 ovarian, over 100 µM; with SK-MEL-2 melanoma, over 100 µM. Besides, the TGI in the test with SN12C renal, in the test with SW-620 colon and in the test with UACC-62 melanoma was over 100 µM throughout.

`Cc1ccc2c(=O)cc(-c3ccccc3)[nH]c2n1`: the TGI in the test with DU-145 prostate is over 23.7 µM; in the test with HCT-116 colon, 59.4 µM; in the test with MALME-3M melanoma it was over 100 µM; with OVCAR-3 ovarian, 0.308 µM; with OVCAR-5 ovarian, over 100 µM; in the test on SK-MEL-2 melanoma, over 100 µM. For the same compound, the TGI in the test with SN12C renal is over 36 µM; in the test on SW-620 colon it was over 100 µM.

Turning to `Cc1cccc(N=Nc2ccc(O)c(CN(C)C)c2)c1`, the TGI in the test with HCT-116 colon is over 100 µM; in the test with M14 melanoma it was 62.2 µM; in the test with MALME-3M melanoma it was 21.8 µM; with OVCAR-3 ovarian, 52.7 µM; in the test on OVCAR-5 ovarian, 98.4 µM; with SK-MEL-2 melanoma it was 47.6 µM. Further, the results for the TGI with SN12C renal, with SW-620 colon and in the test with UACC-62 melanoma were over 100 µM, 66.8 µM and 30.4 µM, respectively.

As for `N#Cc1cc([N+](=O)[O-])ccc1NC(=O)C(=O)Nn1c(=S)[nH]c2ccccc2c1=O`, the TGI in the test on HCT-116 colon, in the test on M14 melanoma, in the test on MALME-3M melanoma, in the test with OVCAR-3 ovarian, with OVCAR-5 ovarian and with SN12C renal was over 100 µM in each case. In addition, the TGI in the test on SW-620 colon was over 100 µM.

For the compound `COc1ccc2nc3c(nc2c1)C(C)(C)C=C3c1ccc(Br)cc1`, the TGI with DU-145 prostate, in the test on HCT-116 colon, in the test on M14 melanoma, in the test with MALME-3M melanoma, in the test on OVCAR-5 ovarian and in the test on SK-MEL-2 melanoma was over 100 µM each time. Besides, the values for the TGI in the test on SN12C renal and in the test with SW-620 colon were over 100 µM and 21.9 µM, respectively.

`COc1ccc(CNCCN2C(=O)c3ccc4c5c(ccc(c35)C2=O)C(=O)N(CCNCc2ccc(OC)c(OC)c2OC)C4=O)c(OC)c1OC`: the results for the GI50 in the test on MALME-3M melanoma, with OVCAR-3 ovarian and with SN12C renal were 0.112 µM, 0.121 µM and 0.0942 µM, respectively. Moreover, the figures for the TGI in the test with MALME-3M melanoma, in the test on OVCAR-3 ovarian and with SN12C renal were 0.297 µM, 0.353 µM and 0.207 µM, respectively.

These data come from PubChem BioAssay (NCI).
